ChEMBL document CHEMBL1142753, “Bioactive fluorinated derivative of amphotericin B” (Bioorg Med Chem Lett, 2005)

Experiments:
Aspergillus niger = experiment: Inhibitory effect of Amphotericin required for antifungal activity against Aspergillus niger; type: functional
[1] = Effective concentration of Amphotericin required for hemolytic activity against 1% human erythrocytes; type: functional

## CC1OC(O[C@H]2/C=C/C=C/C=C/C=C/C=C/C=C/C=C/[C@H](C)[C@@H](O)[C@@H](C)[C@H](C)OC(=O)C[C@H](O)C[C@H](O)CC[C@@H](O)[C@H](O)C[C@H](O)C[C@]3(O)C[C@H](O)[C@@H](C(=O)O)[C@H](C2)O3)C(O)C(NCc2ccc(F)cc2)C1O (stereo partly specified)
Aspergillus niger
  Activity: >50 µg
[1]
  EC50: 2.6 µM

## CC1OC(O[C@H]2/C=C/C=C/C=C/C=C/C=C/C=C/C=C/[C@H](C)[C@@H](O)[C@@H](C)[C@H](C)OC(=O)C[C@H](O)C[C@H](O)CC[C@@H](O)[C@H](O)C[C@H](O)C[C@@]3(O)O[C@@H](C2)[C@H](C(=O)O)[C@@H](O)[C@@H]3F)C(O)C(N)C1O (stereo partly specified)
Aspergillus niger
  Activity: 10 µg
[1]
  EC50: 1.3 µM

## C[C@@H]1[C@H](O)[C@@H](C)/C=C/C=C/C=C/C=C/C=C/C=C/C=C/[C@H](O[C@@H]2O[C@H](C)[C@@H](O)[C@H](N)[C@@H]2O)C[C@@H]2O[C@](O)(C[C@@H](O)C[C@@H](O)[C@H](O)CC[C@@H](O)C[C@@H](O)CC(=O)O[C@H]1C)C[C@H](O)[C@H]2C(=O)O [AMPHOTERICIN B]
Aspergillus niger
  Activity: 10 µg
[1]
  EC50: 1.4 µM
